The values that follow come from US10912752B2, “Methods and compositions for reducing ocular discomfort” (Brien Holden Vision Institute Limited, priority 2012, dated 2021).

Assay [1] relates to HCLE cells. Kind of assay: CyQUANT cell number after hyperosmolar medium. The assay is classed as cell-based, human. Conditions: 5 or 10 mM, 500 mOsm, 16 h, vs hyperosmotic control. How it is done: (§1) 500 mOsm and exposure time (16 h) to be the most informative under which to observe hyperosmolality induced cellular responses of HCLE (results not shown). Thus, in the present study, a hyperosmotic medium of 500 mOsm and exposure time of 16 h were used throughout. Hyperosmolar media were prepared by the addition of NaCl to the medium. Medium osmolarity was measured using a Vapro 5520 vapour pressure osmometer (Wescor, Logan, Utah). Subconfluent cells were exposed to hyperosmolar media in the presence or absence of betaine (5 or 10 mM). Mitochondrial and proliferation activities for cell viability; TNF-α production; caspase activity and Annexin V/PI staining for apoptosis; and cellular shrinkage were monitored as detailed below.
(§2) MTT viability assay kit was used to measure cell viability (above). CyQUANT cell proliferation assay kit (Invitrogen-Molecular probe, Eugene, Oreg.) was used to determine the cell number. Culture supernatants were removed and centrifuged at 1500 rpm for 10 min to harvest any detached cells from the supernatant. Remaining cells were rinsed once with PBS. […] Fluorescence, indicating cell viability, was measured using SpectraFluor Plus microplate reader (Tecan, Männedorf, Switzerland); 485 nm for excitation and 535 nm for emission maxima.

Assay [2] has as its system HCLE cells. Kind of assay: Annexin V/PI/Hoechst staining, confocal microscopy, damaged cells. It counts as cell-based, human. Particulars: 500 mOsm + 10 mM, 16 h. How it is done: Cells undergoing apoptosis or necrosis were identified using Alexa Fluor 488 annexin V/Dead cell apoptosis assay (Invitrogen-Molecular probe) with some modifications. Cells were seeded at 6.5×10^4 cells mL^−1 in 75 cm^2 cell culture flask and incubated overnight. Once the cells reached 70%-80% confluence, they were subjected to different osmolarity treatments for 16 hours. Supernatants were removed and retained for collection of non-adherent cells. Adherent cells were rinsed twice with PBS and detached using 0.05% trypsin. The culture supernatant and trypsin digests were pelleted, rinsed twice in PBS, and combined during resuspenison in annexin-binding buffer. Five microlitres of Alexa Fluor 488 annexin V, 12.5 μg mL^−1 of Hoechst 33342 and 1 μg mL^−1 of propidium iodide (PI) were added to 100 μL of cell suspension containing approximately 1×10^5 cells and incubated at room temperature for 15 minutes. Cells were washed with 200 μL of annexin-binding buffer and deposited onto coverslips. […] Cells stained with annexin V, PI or Hoechst for apoptotic, necrotic or total cells, respectively, were quantified for each image using ImageJ (http://rsbweb.nih.gov/ij/; National Institutes of Health, Bethesda, Md.) to obtain an average value for each treatment.

For assay [3], the system named is HCLE cells. Description: MTT mitochondrial activity after hyperosmolar medium. The assay is classed as cell-based, human. Particulars: 5 or 10 mM, 500 mOsm, 16 h, vs hyperosmotic control. As to the method:
as §1, §2

In assay [4] the test system is human corneal epithelial cell. Description: Evaporative drying culture model, Annexin V/PI apoptotic/necrotic cells. The assay is classed as cell-based. Conditions: 0.25% in culture medium, 4 hrs evaporative drying, 34° C. How it is done: A in vitro human corneal epithelial cell culture model was used where cells were cultured under a slow drying condition with the culture medium slowly evaporated over the time period of 4-4.5 hours at 34° C. (the temperature of human eyes) to mimic tear film evaporation.

On to `C[N+](C)(C)CC(=O)[O-]` [betaine, trimethylglycine], for which, in the assay on HCLE cells [1], the “increase in cell numbers” value is reported as 12%. For the same compound, the “percentage of damaged cells (of the total cells)” value with HCLE cells [2] is 7.5%. For the same compound, the “increase in mitochondrial activity” value in the assay with HCLE cells [3] is recorded as 17%.
Turning to `C[N+](C)(C)CC(O)CC(=O)[O-]` (stereo not shown) [carnitine, 3-hydroxy-4-(trimethylazaniumyl)butanoate], the “cellular damage (apoptotic and necrotic cells) caused by evaporation-increased osmolarity” value in assay [4] is “minimised the cellular damage”.
